Measured values reported in paper PMC12974487, “Inhibition of FicD-mediated AMPylation and deAMPylation by isoprenoid diphosphates” (Proceedings of the National Academy of Sciences of the …, 2026).
Residue numbers refer to the chain shown, from its start.

Columns and labels:
Type in all cases: binding
[1] = target: T1, FicD^E234G (Homo sapiens, UniProt Q9BVA6, E234G); assay: MIDAS metabolite screen, FicD^E234G; conditions: cutoff Q < 0.05 and |Log2 corrected fold change| > 2, metabolites 5 µM
T1 construct: soluble ER luminal domain (residues 105 to 458) of wild-type human FicD and three mutants; 6xHis-Sumo (N, cleaved yes); made in house; host or cells: Rosetta(DE3) E. coli
T1 sequence (Q9BVA6 105-458 E234G): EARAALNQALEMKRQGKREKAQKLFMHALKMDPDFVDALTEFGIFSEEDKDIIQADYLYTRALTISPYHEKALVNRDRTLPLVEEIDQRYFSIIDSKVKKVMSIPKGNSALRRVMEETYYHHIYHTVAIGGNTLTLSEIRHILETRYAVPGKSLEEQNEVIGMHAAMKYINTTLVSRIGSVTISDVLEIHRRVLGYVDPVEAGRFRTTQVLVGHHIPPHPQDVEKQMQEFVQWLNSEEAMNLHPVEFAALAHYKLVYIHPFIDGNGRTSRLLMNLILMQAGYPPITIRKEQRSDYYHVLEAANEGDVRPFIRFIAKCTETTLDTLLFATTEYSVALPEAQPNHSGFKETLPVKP

[2] = target: T2, FicD^H363A (Homo sapiens, UniProt Q9BVA6, H363A); assay: MIDAS metabolite screen, FicD^H363A; conditions: cutoff Q < 0.05 and |Log2 corrected fold change| > 2, metabolites 5 µM
T2 construct: soluble ER luminal domain (residues 105 to 458) of wild-type human FicD and three mutants; 6xHis-Sumo (N, cleaved yes); made in house; host or cells: Rosetta(DE3) E. coli
T2 sequence (Q9BVA6 105-458 H363A): T1 sequence (Q9BVA6 105-458 E234G) with G130E, H259A
Excerpt: To identify small-molecule metabolite interactions with FicD, we applied an unbiased high-throughput screening approach known as MIDAS ([44]). Given the high concentrations of protein required for MIDAS screening, we purified the soluble ER luminal domain (residues 105 to 458) of wild-type human FicD and three mutants FicD^E234G, FicD^L258D, and FicD^H363A for screening (Fig. 1A). These mutants were selected based on their well-established biochemical features ([23], [24], [31]). All three are predicted to enhance detection of protein–metabolite interactions (PMIs) relative to FicD^WT through increased affinity for nucleotide substrates (FicD^E234G), improved solubility (FicD^L258D), and loss of catalytic turnover (FicD^H363A) (Fig. 1A). To decrease the potential for nonspecific small-molecule binding, we ensured the purity of our FicD proteins (SI Appendix, Fig. S1 A and B). As reported by other investigators ([24], [31]), we observe an increase in elution volume of the FicD^L258D mutant, consistent with its monomerization (SI Appendix, Fig. S1C).
Out of the 602 naturally occurring human metabolites in the MIDAS library, we applied a significance cutoff (q value < 0.05) to identify 12 PMIs with a Log2 (corrected fold change) of >2 and two PMIs with a Log2 (corrected fold change) <-2 in the FicD^WT screen (Fig. 1B and SI Appendix, Table S2). Hits were additionally triaged based on detection of multiple adducts of the metabolite in a single dataset (FPP and […] in Fig. 1B) and identification of the same metabolites across three or more of the FicD construct screens (Fig. 1C). Three chemical classes passed this initial triage: adenosine nucleotides, isoprenoid diphosphates, and thyroid hormone intermediates (Fig. 1 B and C and SI Appendix, Tables S2–S5).
22°C. Induced cultures were then harvested by centrifugation at 8000G for 15 minutes at 4°C and […]
Bacterial pellets were resuspended in 30-50mL of 50mM Tris pH 7.4/150mM NaCl/10% glycerol with one Roche cOmplete EDTA-Free Protease inhibitor cocktail tablet (cat no. COEDTAF-RO).
Triton-X100 to a final concentration of 0.2%, Chicken-egg lysozyme to a final concentration of 0.4ug/mL, and 2-5uL of Millipore Benzonase Nuclease (cat no. 70664) were added to bacterial suspension prior to sonication at 40-50% amplitude for 1-3 minutes in pulses of 5 seconds on and 30 seconds off on ice with a Sonics VCX 750 Ultrasonicator. Bacterial lysate was then clarified by centrifugation at 30,000 x g for 30 minutes at 4°C.
Clarified lysate was rotated with Qiagen NiNTA agarose beads (cat no. 30210) for 1-2 hours at 4°C. […]

[3] = target: T3, BiP (Homo sapiens, UniProt P11021, T229A); assay: DSF specificity control with BiP; conditions: same increasing metabolite concentrations
T3 construct: BiPT229A (residues 27-654) was expressed as an 6xHis-Thrombin-T7 n-terminal fusion; 6xHis-Thrombin-T7 (N); made in house; host or cells: Rosetta(DE3) E. coli
T3 sequence (P11021 27-654 T229A): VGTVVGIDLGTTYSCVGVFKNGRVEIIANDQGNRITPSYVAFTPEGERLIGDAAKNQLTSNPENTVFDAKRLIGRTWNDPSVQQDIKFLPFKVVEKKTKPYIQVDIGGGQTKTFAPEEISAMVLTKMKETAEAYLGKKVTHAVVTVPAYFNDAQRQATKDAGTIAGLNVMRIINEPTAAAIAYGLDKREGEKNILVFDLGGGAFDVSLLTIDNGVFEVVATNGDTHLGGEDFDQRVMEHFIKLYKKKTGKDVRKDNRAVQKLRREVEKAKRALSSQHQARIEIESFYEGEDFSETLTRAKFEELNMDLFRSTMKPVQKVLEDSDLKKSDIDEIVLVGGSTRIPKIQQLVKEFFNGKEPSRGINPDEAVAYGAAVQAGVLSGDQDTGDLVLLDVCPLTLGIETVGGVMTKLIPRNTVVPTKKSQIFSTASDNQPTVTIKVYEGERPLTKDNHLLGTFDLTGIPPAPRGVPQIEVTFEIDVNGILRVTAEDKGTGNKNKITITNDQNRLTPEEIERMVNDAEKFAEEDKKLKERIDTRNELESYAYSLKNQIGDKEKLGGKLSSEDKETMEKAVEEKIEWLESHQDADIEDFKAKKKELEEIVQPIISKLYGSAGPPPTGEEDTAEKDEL

Row | Compound | MIDAS protein-metabolite interaction (enrichment/depletion) [1] | MIDAS protein-metabolite interaction (enrichment/depletion) [2] | change in melt curves or Tm of BiP [3]
1 | Nc1ncnc2c1ncn2[C@@H]1O[C@H](COP(=O)(O)OP(=O)(O)O)[C@@H](O)[C@H]1O [ADP] | significantly enriched | significantly enriched | –
2 | CC(C)=CCC/C(C)=C/CC/C(C)=C/COP(=O)(O)OP(=O)(O)O [FPP, farnesyl-pyrophosphate] | – | significantly enriched | neither GPP nor FPP elicited a change
3 | CC(C)=CCC/C(C)=C/COP(=O)(O)OP(=O)(O)O [GPP, geranyl-pyrophosphate] | significantly enriched | significantly enriched | neither GPP nor FPP elicited a change
